Values after ≈ are worked out from the molar mass of the structure shown. Ends that are not written are not given here. Peptide text beside a SMILES is read from it. * marks the point of attachment. Fmoc = O=C(OCC1c2ccccc2-c2ccccc21)*; X1 = O=C(Sc1ccccc1)*
Columns and labels:
S. epidermidis (51625) = assay type: cell-based
RNAIII [1] = assay type: cell-based, S. aureus
S. aureus [2] = assay type: cell-based
S. aureus [3] = tested on: S. aureus
S. haemolyticus = assay type: cell-based
S. aureus [4] = assay: Mouse model, Staph injected IP 20 min prior to drug injection (IP); assay type: in vivo, mice; details: for % Survival at 24 hr.: 20 min after Staph; for Number of mice that survived at 24 hours post-injection relative to vehicle (in words): VIF-1 20 or 15 mg/kg, FTB 10 mg/kg
Method: (§1) The assay was carried out by injecting a fixed amount of a S. aureus culture, typically containing from about 5×10^9 cells from an early exponential growth stage culture, by intraperitoneal (IP) injection into mice, based on the method described by Thakker et al., 1998.
In another approach, S. aureus was injected IP 20 minutes prior to IP injection of VIF-1 or FTB.
The commonly used anti-Staphylococcal antibiotics, methicillin and vancomycin, were tested in this model.

S. aureus [5] = assay: Mouse model, Staph mixed with drug prior to IP injection; assay type: in vivo, mice; details: for % Survival at 24 hr.: mixed with Staph prior to IP injection; for Number of mice that survived at 24 hours post-injection (in words): VIF-1 3 or 15 mg/kg, FTB 1, 2 or 5 mg/kg
Method: as §1
In one study, the S. aureus was mixed with VIF-1 or FTB, prior to IP injection.

RNAIII [6] = details: reported by Balaban et al., 1998; cited from earlier work

O=C(Nc1ccccc1C(=O)O)OCC1c2ccccc2-c2ccccc21 [Reference #4, Fmoc-2-aminobenzoic acid]
IC50, α-toxin production (S. epidermidis (51625)): 0.5 µg/mL (≈ 1.39 µM)
Inhibition of RNA III activation (RNAIII [1]): 2.9 (3) μg/ml
Inhibition of TSST-1 (S. aureus [2]): 2.0 µg/mL
Inhibition of α-Hemolysin production (S. aureus [3]): 0.9 (5) μg/ml
Inhibition of α-toxin production (in words) (S. aureus [3]): inhibited α-toxin production
IC50, α-toxin production (S. warneri): 0.6 µg/mL (≈ 1.67 µM)
IC50, α-toxin production (S. haemolyticus): 0.7 µg/mL (≈ 1.95 µM)

O=C(O)[C@H]1c2ccccc2CCN1C(=O)OCC1c2ccccc2-c2ccccc21 [Reference #16]
IC50, α-toxin production (S. epidermidis (51625)): 0.5 µg/mL (≈ 1.25 µM)
Inhibition of RNA III activation (RNAIII [1]): 3.5 (3) μg/ml
Inhibition of TSST-1 (S. aureus [2]): 4.0 µg/mL
Inhibition of α-Hemolysin production (S. aureus [3]): 1.3 (3) μg/ml
Inhibition of α-toxin production (in words) (S. aureus [3]): inhibited α-toxin production
IC50, α-toxin production (S. warneri): 0.6 µg/mL (≈ 1.5 µM)
IC50, α-toxin production (S. haemolyticus): 0.6 µg/mL (≈ 1.5 µM)

CC(C)(C)OC(=O)n1cc(C[C@H](NC(=O)OCC2c3ccccc3-c3ccccc32)C(=O)O)c2ccccc21 [Reference #35, Fmoc-L-Trp(Boc)-OH]
IC50, α-toxin production (S. epidermidis (51625)): 0.5 µg/mL (≈ 0.95 µM)
Inhibition of RNA III activation (RNAIII [1]): 1.4 µg/mL
Inhibition of TSST-1 (S. aureus [2]): 5.0 µg/mL
% Survival at 24 hr. (S. aureus [4]; 2 mg/kg IP): 25%
% Survival at 24 hr. (S. aureus [4]; 10 mg/kg IP): 71%
Number of mice that survived at 24 hours post-injection relative to vehicle (in words) (S. aureus [4]): effective to significantly increase the number of mice that survived
IC50, α-toxin production (S. aureus [3]): 0.8 µg/mL (≈ 1.52 µM)
Inhibition of α-Hemolysin production (S. aureus [3]): 1.2 (13) μg/ml
Inhibition of α-toxin production (in words) (S. aureus [3]): inhibited α-toxin production
% Survival at 24 hr. (S. aureus [5]; 0.2 mg/kg): 0%
% Survival at 24 hr. (S. aureus [5]; 1 mg/kg): 83%
% Survival at 24 hr. (S. aureus [5]; 2 mg/kg): 67%
% Survival at 24 hr. (S. aureus [5]; 5 mg/kg): 83%
Number of mice that survived at 24 hours post-injection (in words) (S. aureus [5]): effective to significantly increase the number of mice that survived
IC50, α-toxin production (S. warneri): 0.6 µg/mL (≈ 1.14 µM)
IC50, α-toxin production (S. haemolyticus): 0.6 µg/mL (≈ 1.14 µM)

O=C(NC1(C(=O)O)CCCCC1)OCC1c2ccccc2-c2ccccc21 [Reference #86, Fmoc-1-amino-1-cyclohexane carboxylic acid]
IC50, α-toxin production (S. epidermidis (51625)): 0.4 µg/mL (≈ 1.09 µM)
Inhibition of RNA III activation (RNAIII [1]): 3.0 (3) μg/ml
Inhibition of TSST-1 (S. aureus [2]): 10.0 µg/mL
Inhibition of α-Hemolysin production (S. aureus [3]): 2.1 (3) μg/ml
Inhibition of α-toxin production (in words) (S. aureus [3]): inhibited α-toxin production
IC50, α-toxin production (S. warneri): 0.6 µg/mL (≈ 1.64 µM)
IC50, α-toxin production (S. haemolyticus): 0.6 µg/mL (≈ 1.64 µM)

O=C(O)[C@@H]1CC[C@H](c2ccccc2)N1C(=O)OCC1c2ccccc2-c2ccccc21 [Reference #113, (2S,5R)-Fmoc-5-phenyl-pyrrolidine-2-carboxylic acid]
IC50, α-toxin production (S. epidermidis (51625)): 0.5 µg/mL (≈ 1.21 µM)
Inhibition of RNA III activation (RNAIII [1]): 3.0 (1) μg/ml
Inhibition of TSST-1 (S. aureus [2]): 6.0 µg/mL
IC50, α-toxin production (S. aureus [3]): 0.9 µg/mL (≈ 2.18 µM)
Inhibition of α-Hemolysin production (S. aureus [3]): 1.7 (5) μg/ml
Inhibition of α-toxin production (in words) (S. aureus [3]): inhibited α-toxin production
IC50, α-toxin production (S. warneri): 0.6 µg/mL (≈ 1.45 µM)
IC50, α-toxin production (S. haemolyticus): 0.7 µg/mL (≈ 1.69 µM)

O=C(N[C@@H](C/C=C/c1ccccc1)C(=O)O)OCC1c2ccccc2-c2ccccc21 [Reference #124, Fmoc-L-styrylalanine]
IC50, α-toxin production (S. epidermidis (51625)): 0.6 µg/mL (≈ 1.45 µM)
Inhibition of RNA III activation (RNAIII [1]): 2.9 (1) μg/ml
Inhibition of TSST-1 (S. aureus [2]): 10.0 µg/mL
Inhibition of α-Hemolysin production (S. aureus [3]): 2.0 (4) μg/ml
Inhibition of α-toxin production (in words) (S. aureus [3]): inhibited α-toxin production
IC50, α-toxin production (S. warneri): 0.7 µg/mL (≈ 1.69 µM)
IC50, α-toxin production (S. haemolyticus): 0.5 µg/mL (≈ 1.21 µM)

C[C@@H](O)[C@H](NC(=O)[C@H](Cc1cn(C(=O)Sc2ccccc2)c2ccccc12)NC(=O)[C@@H]1CCCN1C(=O)[C@H](CO)NC(=O)[C@H](Cc1ccc(O)cc1)NC(=O)OCC1c2ccccc2-c2ccccc21)C(=O)N[C@@H](CC(N)=O)C(=O)N[C@@H](Cc1ccccc1)C(=O)O [VIF-1, (Fmoc-Tyr)-Ser-Pro-Trp(phenylthiocarbamate)-Thr-Asn-Phe] (Fmoc-YSPW(X1)TNF-OH; C-terminus assumed)
Inhibition of RNA III activation (RNAIII [1]): 1.5 µg/mL
Lowest concentration that suppressed release of TSST-1 (S. aureus [2]): 0.2 µg/mL
% Survival at 24 hr. (S. aureus [4]; 6 mg/kg IP): 13%
% Survival at 24 hr. (S. aureus [4]; 15 mg/kg IP): 50%
% Survival at 24 hr. (S. aureus [4]; 20 mg/kg IP): 67%
Number of mice that survived at 24 hours post-injection relative to vehicle (in words) (S. aureus [4]): effective to significantly increase the number of mice that survived
IC50, α-toxin production (S. aureus [3]): 0.6 µg/mL (≈ 0.472 µM)
Inhibition of α-Hemolysin production (S. aureus [3]): 1.1 µg/mL
Inhibition of α-toxin production (in words) (S. aureus [3]): inhibited α-toxin production
% Survival at 24 hr. (S. aureus [5]; 1 mg/kg): 67%
% Survival at 24 hr. (S. aureus [5]; 3 mg/kg): 83%
% Survival at 24 hr. (S. aureus [5]; 15 mg/kg): 83%
Number of mice that survived at 24 hours post-injection (in words) (S. aureus [5]): effective to significantly increase the number of mice that survived
IC50, α-toxin production (S. warneri): 0.1 µg/mL (≈ 0.0786 µM)
IC50 for inhibition of hemolysin production (S. warneri): 0.10 µg/mL
Inhibition of hemolysin production (in words) (S. warneri): potently inhibited

ProCysThrAsnPhe (PCTNF; printed: ProCysThrAsnPhe) [peptide 1]
Inhibition of induction of RNAIII (in words) (RNAIII [6]): inactive

YSPWTNF [PEP, reference compound]
Inhibition of RNAIII induction (in words) (RNAIII [1]): no significant activity
Inhibition of induction of RNAIII (in words) (RNAIII [6]): inhibit induction of RNAIII as effectively as RIP
Inhibition of α-toxin / virulence factor production (in words) (S. aureus [3]): no significant activity

From patent US20030050248A1 (priority 2000, published 2003)
